Tests used:
human KOR (hKOR) = human KOR (hKOR) (Homo sapiens, UniProt P41145); conditions: cited from earlier work
hKOR = hKOR (Homo sapiens, UniProt P41145); assay: biochemical; assay type: biochemical; conditions: for Emax: read-out: Emax (percentage of maximal response to U50,488H); for Emax at 1 µM: read-out: Emax at 1 μM (percentage of maximal response to U50,488H)
Chain of hKOR (P41145 whole entry): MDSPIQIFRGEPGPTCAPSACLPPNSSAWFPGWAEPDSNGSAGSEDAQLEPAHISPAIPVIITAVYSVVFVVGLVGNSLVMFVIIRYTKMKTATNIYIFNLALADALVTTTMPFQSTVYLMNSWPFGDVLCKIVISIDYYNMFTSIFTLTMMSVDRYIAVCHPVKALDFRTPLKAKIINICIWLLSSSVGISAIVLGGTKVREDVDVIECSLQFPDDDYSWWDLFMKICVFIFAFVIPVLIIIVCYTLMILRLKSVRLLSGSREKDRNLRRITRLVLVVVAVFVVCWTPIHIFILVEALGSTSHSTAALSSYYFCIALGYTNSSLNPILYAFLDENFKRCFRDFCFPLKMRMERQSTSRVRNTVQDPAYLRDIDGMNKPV

Chain of human KOR (hKOR) (P41145 whole entry): as above

Row | Compound | Emax at 1 µM (hKOR) [%] | also measured
1 | COC(=O)[C@@H]1C[C@H](O)C(=O)[C@H]2[C@@]1(C)CC[C@H]1C(=O)O[C@H](c3ccoc3)C[C@]21C [Compound 2, Salvinorin B] | – | affinity to KOR (in words) (human KOR (hKOR)): comparatively much lower affinity; fold lower affinity than its epimer (human KOR (hKOR)): 3 fold
2 | COC[C@@]1(C)C[C@@H](C(=O)OC)[C@]2(C)CC[C@H]3C(=O)O[C@H](c4ccoc4)C[C@]3(C)[C@H]2C1=O [Compound 9a, 2-methyl-2-methoxymethyl-salvinorin ether] | – | agonist / antagonist activity at KOR (hKOR): potent full agonist; Emax (hKOR): 123 ± 16%
3 | COC[C@@]1(C)C[C@@H](C(=O)OC)[C@]2(C)CC[C@@H]3C(=O)O[C@H](c4ccoc4)C[C@]3(C)[C@H]2C1=O [Compound 9b] | – | Emax (hKOR): 103 ± 16%
4 | CC[C@]1(COC)C[C@@H](C(=O)OC)[C@]2(C)CC[C@H]3C(=O)O[C@H](c4ccoc4)C[C@]3(C)[C@H]2C1=O [Compound 10a] | 83 | –
5 | CC[C@]1(COC)C[C@@H](C(=O)OC)[C@]2(C)CC[C@@H]3C(=O)O[C@H](c4ccoc4)C[C@]3(C)[C@H]2C1=O [Compound 10b] | 81 | –
6 | C=CC[C@]1(COC)C[C@@H](C(=O)OC)[C@]2(C)CC[C@H]3C(=O)O[C@H](c4ccoc4)C[C@]3(C)[C@H]2C1=O [Compound 12a] | 99 | –
7 | C=CC[C@]1(COC)C[C@@H](C(=O)OC)[C@]2(C)CC[C@@H]3C(=O)O[C@H](c4ccoc4)C[C@]3(C)[C@H]2C1=O [Compound 12b] | 84 | –
8 | COC[C@@]1(CCOCCI)C[C@@H](C(=O)OC)[C@]2(C)CC[C@H]3C(=O)O[C@H](c4ccoc4)C[C@]3(C)[C@H]2C1=O [Compound 14a] | 98 | –
9 | COC[C@@]1(CCOCCI)C[C@@H](C(=O)OC)[C@]2(C)CC[C@@H]3C(=O)O[C@H](c4ccoc4)C[C@]3(C)[C@H]2C1=O [Compound 14b] | 85 | –

Reference: publication PMC4620681 (Bioorganic & medicinal chemistry letters, 2015)
